Measurements taken from US20180339016A1 (priority 2015, published 2018).
Where two headings read alike, the source gives them in different places.

What was measured:
[1] = system: Escherichia coli (ATCC 25922); details: peptide alone; peptide concentration required to inhibit growth by 20% (so in the source)
Description: The N-terminus of the peptides were acetylated and the C-terminus was amidated. The kinked structure can rapidly reduce the alpha-helical content, thereby greatly reducing the toxicity of the peptide against host cells. In addition, because of the potential to show specificity for the Gram-negative bacterial membrane, Pro-mutants were prepared by site-directed mutagenesis. Using the prepared peptides, their MIC for the Gram-negative bacterium E. coli and the Gram-positive bacterium S. aureus and their hemolytic activity for host cells were examined (Table 1).
(§1) To measure the synergy between the membrane-activating peptides and the repositioning drug, a 10× compound was prepared, and then serially diluted ⅔-fold with distilled water. An MH broth (900 μl) was added to and mixed with the 10× compound (100 μl), and then 200 μL of the mixture was taken and added to a 96-well plate. E. coli cultured for one day was adjusted to 0.5 MCF using MCFarland, and diluted 10-fold, and then 10 μl of the dilution was added to each well of the plate (5×10^5 CFU/mL). After addition of the bacterial cells, plate was incubated at 37° C. for 18 hours, and then the OD value at UV-Vis (600 nm) was measured. Cell viability (%)=(OD600 of sample−OD600 of negative control)/(OD600 of positive control−OD600 of negative control)×100.

E. coli ATCC 25922 = assay: Antibiotic interaction assay (Wimley), 2/3 broth microdilution: MIC alone, MIC of combination, FICI; format: cell-based; details: for MIC of combination (μM): antibiotic: concentration of labelled drug in combination with KL-L9P; for FICI of drug with KL-L9P / FICIKL-L9P / FICIantibiotic: labelled drug + KL-L9P; for MIC of drug with 1 μM KL-L9P / dilution of MIC relative to drug alone: with 1 μM of KL-L9P
Description: Synergy was evaluated by an antibiotic interaction assay (Wimley, 2015) Using the method of Wimley (BBA, 2015, v. 1848(1), pp. 8-15), synergy between the membrane-activating peptide and an antibiotic was measured by an FICI value (FIG. 17). […] Thus, to accurately examine synergy, a ⅔ dilution method which observes MIC at denser concentration intervals is advantageous over a ½ dilution method in statistical terms. […] In the same manner, the MIC of an antibiotic or repositioning drug (second line) is measured. In the third line, the two compounds are mixed after putting half amount each, and the MIC thereof is measured.
A broth microdilution technique (⅔ dilution) was used together with an MH broth. E. coli treated with an antibiotic and the peptide was incubated in a 37° C. incubator for 18 hours.
as §1

[2] = Escherichia coli, ATCC25922, 18 h, drug alone, <20% growth of positive control, read-out: MIC of antibiotic
[3] = labelled peptide + colistin + linezolid
[4] = three compounds: labelled peptide + colistin + linezolid
[5] = Escherichia coli, ATCC25922, 18 h, Tables 19-23, read-out: MIC (μM) against E. coli ATCC, 1 compound alone

| Compound | MIC [μM] Against E. coli [1] | MIC (E. coli ATCC 25922; [2]) | MIC of combination (μM): antibiotic (E. coli ATCC 25922) | FICI of drug with KL-L9P (E. coli ATCC 25922) | FICIKL-L9P (E. coli ATCC 25922) | FICIantibiotic (E. coli ATCC 25922) | also measured |
| --- | --- | --- | --- | --- | --- | --- | --- |
| Mtx- LKKLLKLPKKLLKL [Mtx-LK-L8P] | 5.0 µM |  |  |  |  |  |  |
| Mtx- KLLKLPKKLLKLLK [Mtx-KL-L6P] | 5.0 µM |  |  |  |  |  |  |
| Oc1ccc(C=Cc2cc(O)cc(O)c2)cc1 [resveratrol] |  | 1770 µM | 246.91 µM | 0.25 | 0.11 | 0.14 |  |
| CC(=O)Oc1ccccc1C(=O)O [aspirin] |  | 519 µM | 479.17 µM | 1.59 | 0.66 | 0.92 | synergy with KL-L9P (E. coli ATCC 25922): not synergistic |
| KLLKLLKCLLKCLK [8, 12 kink] | 1.1 µM |  |  |  |  |  | MIC of combination (μM): antibiotic (colistin) (E. coli ATCC 25922; colistin concentration in combination with labelled peptide): 0.065 µM; FICI of peptide with colistin (E. coli ATCC 25922; labelled peptide + colistin): 0.86; FICIPeptide (E. coli ATCC 25922; labelled peptide + colistin): 0.56; FICIcolistin / FICIantibiotic (E. coli ATCC 25922; labelled peptide + colistin): 0.30; FICI of peptide with colistin and linezolid (E. coli ATCC 25922; [3]): 1.1; FICIPeptide (E. coli ATCC 25922; [3]): 0.42; FICIcolistin (E. coli ATCC 25922; [3]): 0.29; FICIlinezolid (E. coli ATCC 25922; [3]): 0.37; MIC of peptide (E. coli ATCC 25922; peptide alone): 1.1 µM; MIC of combination (μM): peptide (E. coli ATCC 25922; peptide concentration in combination with colistin): 0.59 µM; MIC of combination (μM): colistin (E. coli ATCC 25922; [4]): 0.065 µM; MIC of combination (μM): linezolid (E. coli ATCC 25922; [4]): 22 µM; MIC of combination (μM): peptide (E. coli ATCC 25922; [4]): 0.44 µM |
| CC(C)c1c(C(=O)Nc2ccccc2)c(-c2ccccc2)c(-c2ccc(F)cc2)n1CC[C@@H](O)C[C@@H](O)CC(=O)O [atorvastatin] |  | > 500 µM | 166.67 µM | 0.60 | 0.38 | 0.22 |  |
| CC(=O)NC[C@H]1CN(c2ccc(N3CCOCC3)c(F)c2)C(=O)O1 [linezolid] |  | 71.1 µM | 15.80 µM |  | 0.18 | 0.22 | lowering of MIC in combination KL-L9P/colistin/linezolid versus alone (E. coli ATCC 25922): 10 fold; MIC (E. coli ATCC 25922; [5]): 70 µM; MIC (E. coli ATCC 25922; Escherichia coli, ATCC25922, Example 7, read-out: MIC when the three compounds were used alone): 60 µM; MIC (E. coli ATCC 25922; Escherichia coli, ATCC25922, linezolid alone, read-out: MIC of Linezolid): 83 µM; MIC (μM) against E. coli ATCC, combination of 3 compounds (E. coli ATCC 25922; KL-L9P + colistin + linezolid, concentration of labelled component): 6.7 µM; MIC (μM) against E. coli ATCC, combination of two compounds (E. coli ATCC 25922; KL-L9P + linezolid, concentration of labelled component): 16 µM; MIC (μM) against E. coli ATCC, combination of two compounds (E. coli ATCC 25922; colistin + linezolid, concentration of labelled component): 36 µM; concentration killing E. coli in combination KL-L9P/colistin/linezolid (E. coli ATCC 25922; concentration of labelled component): 6 µM; FICI of drug with colistin (E. coli ATCC 25922; labelled drug + colistin): about 1; MIC (E. coli ATCC 25922; linezolid alone, read-out: MIC of Linezolid): 59 µM; MIC of drug with 1 μM KL-L9P (E. coli ATCC 25922): 10 µM; dilution of MIC relative to drug alone (E. coli ATCC 25922): about 16 fold |
| KLLKLLKKNLKLLK [KL L9N] | 2.5 µM |  |  |  |  |  |  |
| CC(C)Cc1ccc(C(C)C(=O)O)cc1 (stereo not shown) [ibuprofen] |  |  |  |  |  |  | MIC of drug with 1 μM KL-L9P (E. coli ATCC 25922): 3 µM; dilution of MIC relative to drug alone (E. coli ATCC 25922): about 3000 fold |
| CC(C)Cc1ccc([C@H](C)C(=O)O)cc1 [(S)-ibuprofen] |  | 12000 µM | 416.67 µM | 0.23 | 0.20 | 0.03 | MIC (E. coli ATCC 25922; [5]): 12000 µM; MIC (μM) against E. coli ATCC, combination of two compounds (E. coli ATCC 25922; KL-L9P + (S)-ibuprofen, concentration of labelled component): 420 µM; MIC (μM) against E. coli ATCC, combination of 3 compounds (E. coli ATCC 25922; KL-L9P + colistin + (S)-ibuprofen, concentration of labelled component): 98 µM; MIC (μM) against E. coli ATCC, combination of two compounds (E. coli ATCC 25922; colistin + (S)-ibuprofen, concentration of labelled component): 830 µM |
| O=c1c(O)c(-c2ccc(O)c(O)c2)oc2cc(O)cc(O)c12 [quercetin] |  | 7500 µM | 108.39 µM | 0.35 | 0.33 | 0.01 |  |
| Mtx- KLLKLLKKPLKLLK [Mtx-KL-L9P] | 5.0 µM |  |  |  |  |  |  |
| COc1ccc2cc3[n+](cc2c1OC)CCc1cc2c(cc1-3)OCO2 [berberine] |  | 298 µM | 273.15 µM |  | 0.53 | 0.92 | synergy with KL-L9P (E. coli ATCC 25922): not synergistic |
| CN(C)[C@@H]1C(=O)C(C(N)=O)=C(O)[C@@]2(O)C(=O)C3=C(O)c4c(O)cccc4[C@@](C)(O)[C@H]3C[C@@H]12 [tetracyclin] |  |  |  |  |  |  | synergy with KL-L9P (E. coli ATCC 25922): not synergistic |
| KLLKLLKKQLKLLK [KL L9Q] | 1.25 µM |  |  |  |  |  |  |
